“Also recorded” adds a separate entry of the source.

Assay [1] deals with vitellogenin. More on the design: method as in Liu et al. (2007). To be noted: primary cultured tilapia hepatocytes; ref Liu et al. (2007); cited from earlier work.
The test system of assay [2] is vitellogenin. More on the design: method as in Ishibashi et al. 2008. To be noted: male medaka fish; ref Ishibashi et al. 2008; cited from earlier work.
The subject of a further assay is MCF-7BUS cells. As to the kind of experiment: E-screen assay (MCF-7BUS cell proliferation, WST-1). It is filed as cell-based, Human. As for the experimental part:
Cell culture. Human MCF-7BUS breast adenocarcinoma cells and MVLN cells were cultured in 100-mm culture dishes in a humidified atmosphere of 5% CO2 at 37°C. Cells were maintained in Dulbecco’s modified Eagle’s medium (DMEM)/F-12 (Hyclone, Logan, UT, USA) containing 10% fetal bovine serum, 100 U/mL streptomycin-penicillin, 2 mM L-glutamine, and 1% insulin-transferrin-selenium supplement (all from Gibco, Grand Island, NY, USA).
E-screen assay. MCF-7BUS cells were kindly provided by A.M. Soto and C. Sonnenschein (Tufts University School of Medicine, Boston, MA, USA). In response to ERα agonists, the mitotic effect leads to the proliferation of MCF-7BUS cells. […] Cells were trypsinized and plated into the interior 60 wells of 96-well plates at the density of 3,000 cells/well. Before each experiment, cells were starved in steroid-free (SF) medium for 48 hr to minimize the basal hormonal activity during assays. SF medium consisted of phenol red–free DMEM/F-12 (Hyclone) supplemented with 5% dextran-charcoal-treated fetal bovine serum (Hyclone), 100 U/mL streptomycin-penicillin, and 2 mM L-glutamine. […] We used a WST-1 proliferation kit (Roche Diagnostics, Mannheim, Germany) to assess proliferation after 6 days of exposure according to the kit instructions. The WST-1 assay is based on the enzymatic cleavage of the tetrazolium salt WST-1 to formazan by cellular mitochondrial dehydrogenases present in viable cells. The absorbance of the WST-1 solution was detected by a microplate reader (Varioskan Flash, Thermo Fisher Scientific, Waltham, MA, USA) at 450 nm, with the reference wave length at 690 nm. The cell proliferation effect was calculated from the solvent control (0.1% ethanol)-corrected absorbance and expressed as the percentage of maximal absorbance of the positive control. Three replicates were used in each experiment.
The concentration–response analyses were performed with four-parameter logistic curve regression analysis according to the following formula:
y = minimum + (maximum – minimum) ÷ [1 + (x/EC50)^Hill slope], [1]
where y is the response value, x is the log concentration of the test compound, and EC50 is the concentration that induces half of the maximum proliferation effect or luciferase activity.
EC50 values were calculated from this nonlinear regression model. EC20 were calculated as […]
(Tetrazolium dyes change colour on reduction, which living cells bring about.)

The subject of assay [3] is gap junction intercellular communication. Also noted: method as in Hu et al. 2002; Upham et al. 1998. The conditions noted are these: ref Hu et al. 2002; Upham et al. 1998; cited from earlier work.

As to `O=C(O)C(F)(F)C(F)(F)C(F)(F)C(F)(F)C(F)(F)C(F)(F)C(F)(F)F` [PFOA, perfluorooctanoic acid, reference compound], the Vitellogenin expression entry in the assay with vitellogenin [1] is on record as “induced”. In addition, the Vitellogenin induction entry with vitellogenin [2] is on record as “did not”. Further, the “E-screen Maximum induction (%)” value in the assay on MCF-7BUS cells (percentage of the maximum proliferation effect of tested compound to that of E2, 6 days exposure) is “NDd (The maximum relative proliferation effect was < 7%)”. The “Proliferation / estrogenic effect in the E-screen assay (in words)” value with MCF-7BUS cells (within the tested concentration ranges) is given as “negative results; also recorded: did not show proliferation effects”.
Regarding `O=S(=O)(O)C(F)(F)C(F)(F)C(F)(F)C(F)(F)C(F)(F)C(F)(F)C(F)(F)C(F)(F)F` [PFOS, perfluorooctane sulfonate], the Vitellogenin expression result in the assay with vitellogenin [1] is listed as “induced”. Besides, the Vitellogenin induction entry in the assay on vitellogenin [2] is recorded as “did not”. In addition, the “Inhibition of gap junction intercellular communication” value (“Inhibition” below) in assay [3] is given as “significantly inhibits”.
As for `O=S(=O)(O)C(F)(F)C(F)(F)C(F)(F)C(F)(F)F` [perfluorobutanesulfonate], in assay [3], the “Inhibition” value was “did not show effects”.
In the case of `O=S(=O)(O)C(F)(F)C(F)(F)C(F)(F)C(F)(F)C(F)(F)C(F)(F)F` [perfluorohexanesulfonate], the “Inhibition” value in assay [3] is reported as “did not show effects”.

(Values after paper PMC3261944, “The in Vitro Estrogenic Activities of Polyfluorinated Iodine Alkanes” (Environmental Health Perspectives, 2011).)
